Test results reported in the supplement of paper PMC10331698.
± gives the standard deviation of the averaged measurements.

How the values were obtained:
[1] = compound: O=S(=O)(O)CCC(F)(F)C(F)(F)C(F)(F)C(F)(F)F [4:2 Fluorotelomer sulfonic acid]; experiment: level (log10 ratio to DMSO vehicle control); higher = higher biomarker level / cell amount than vehicle control; details: in DMSO
Protocol: (§1)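 BioMAP Diversity Plus panel of 12 human primary cell co-culture systems (3C, 4H, LPS, SAg, BT, BF4T, BE3C, CASM3C, HDF3CGF, KF3CT, MyoF, Mphg). Compounds were added 1 h before stimulation and left for 24 h (MyoF 48 h; BT 72 h for soluble read-outs or 6 d for IgG). Biomarkers were read by ELISA, cytotoxicity by SRB, PBMC viability and proliferation by Alamar Blue. Each well value was divided by the mean of 8 DMSO control wells on the same plate and log10 transformed; duplicate blinded samples were tested at 4 concentrations.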

[2] = compound: OCC(F)(F)C(F)(F)C(F)(F)C(F)(F)C(F)(F)C(F)(F)F [6:1 Fluorotelomer alcohol]; experiment: as above; details: in DMSO
Protocol: as §1

Test System	level (log10) ([1]; 6700 nM)	level (log10) ([1]; 20000 nM)	level (log10) ([1]; 60000 nM)	level (log10) ([2]; 6700 nM)	level (log10) ([2]; 20000 nM)	level (log10) ([2]; 60000 nM)
HDF3CGF:CD54/ICAM-1	-0.013 ± 0.016	-0.01 ± 0.017	-0.0175 ± 0.013	-0.0075 ± 0.011	0.008 ± 0.02	0.0075 ± 0.011
KF3CT:SRB	-0.0015 ± 0.0021	-0.0015 ± 0.0021	0.0035 ± 0.0092	-0.0035 ± 0.0064	-0.0025 ± 0.0035	-0.004 ± 0.0028
lMphg:CCL2/MCP-1	0.0005 ± 0.047	0.006 ± 0.025	-0.001 ± 0.0071	-0.016 ± 0.0028	-0.046 ± 0.023	-0.02 ± 0.0071
KF3CT:IL-1alpha	-0.0155 ± 0.0021	-0.0355 ± 0.0078	-0.021 ± 0.021	-0.005 ± 0.02	0.0195 ± 0.021	0.007 ± 0.0071
KF3CT:CXCL8/IL-8	-0.0095 ± 0.0078	-0.024 ± 0.018	-0.023 ± 0.025	-0.0005 ± 0.025	-0.0045 ± 0.023	0.0025 ± 0.015
lMphg:CCL3/MIP-1alpha	0.047 ± 0.031	0.021 ± 0.054	0.0465 ± 0.042	0.009 ± 0.017	-0.0095 ± 0.036	0.0235 ± 0.083
MyoF:MMP-1	-0.022	-0.05 ± 0.0057	-0.005 ± 0.047	-0.018 ± 0.014	-0.0295 ± 0.0078	0.15 ± 0.26
HDF3CGF:CXCL8/IL-8	-0.011 ± 0.016	-0.0025 ± 0.0021	0.007 ± 0.017	0.0005 ± 0.0092	0.001 ± 0.013	-0.046 ± 0.052
lMphg:sIL-10	0.015 ± 0.041	-0.0485 ± 0.032	-0.0545 ± 0.0064	0.0065 ± 0.073	-0.0215 ± 0.013	-0.023 ± 0.0071
CASM3C:SRB	-0.0045 ± 0.0064	-0.013 ± 0.0028	-0.001 ± 0.0028	0.008	0.003 ± 0.0057	-0.04 ± 0.0042
KF3CT:MMP-9	0.0075 ± 0.012	-0.011 ± 0.037	0.023 ± 0.0057	-0.018 ± 0.0028	-0.0315 ± 0.0021	0.002 ± 0.0028
KF3CT:TIMP-2	-0.0215 ± 0.023	-0.0185 ± 0.042	-0.0025 ± 0.0064	-0.0025 ± 0.005	0.0035 ± 0.0021	0.008 ± 0.017
CASM3C:CD87/uPAR	0 ± 0.027	0.0025 ± 0.0078	-0.0165 ± 0.037	-0.004 ± 0.0071	-0.0245 ± 0.00071	-0.026 ± 0.035
BE3C:MMP-1	0.002 ± 0.0014	-0.0035 ± 0.0035	0.038 ± 0.057	-0.0115 ± 0.016	0 ± 0.0014	0.042 ± 0.013
HDF3CGF:CXCL9/MIG	-0.01 ± 0.02	-0.0025 ± 0.029	-0.023 ± 0.025	-0.001 ± 0.0042	-0.012 ± 0.011	-0.0175 ± 0.0078
HDF3CGF:EGFR	-0.0575 ± 0.093	-0.042 ± 0.054	-0.019 ± 0.079	0.009 ± 0.041	0.0125 ± 0.019	-0.0555 ± 0.035
BE3C:Keratin 8/18	0.0065 ± 0.0021	-0.002 ± 0.0014	0.0005 ± 0.0035	0.0055 ± 0.036	-0.0035 ± 0.057	-0.0125 ± 0.071
BE3C:tPA	0.012 ± 0.013	-0.0315 ± 0.03	0.011 ± 0.05	0.0055 ± 0.012	-0.0145 ± 0.019	-0.0075 ± 0.0021
HDF3CGF:CD106/VCAM-1	0.0515 ± 0.081	0.0365 ± 0.094	0.021 ± 0.11	-0.0135 ± 0.013	0.004 ± 0.044	-0.681 ± 0.28
KF3CT:uPA	0 ± 0.0042	0 ± 0.0028	-0.0075 ± 0.028	-0.0045 ± 0.0092	-0.002 ± 0.018	0.0085 ± 0.025

Test System	level (log10) ([1]; 6700 nM)	level (log10) ([1]; 20000 nM)	level (log10) ([1]; 60000 nM)	level (log10) ([2]; 6700 nM)	level (log10) ([2]; 20000 nM)	level (log10) ([2]; 60000 nM)
MyoF:Collagen III	-0.013 ± 0.016	-0.032 ± 0.0028	-0.0045 ± 0.011	-0.005	-0.0015 ± 0.005	0.0105 ± 0.005
3C:CD106/VCAM-1	-0.022 ± 0.028	0.006 ± 0.024	0.005 ± 0.021	0.006 ± 0.0071	0.013 ± 0.013	0.011 ± 0.021
HDF3CGF:SRB	-0.0365 ± 0.037	-0.0075 ± 0.033	0.033 ± 0.058	0.0015 ± 0.067	-0.003 ± 0.025	-0.139 ± 0.13
MyoF:CD106/VCAM-1	-0.0015 ± 0.013	-0.0115 ± 0.0092	-0.004 ± 0.0014	-0.003 ± 0.0071	-0.009 ± 0.017	-0.002 ± 0.018
CASM3C:CCL2/MCP-1	-0.002 ± 0.0057	0.0015 ± 0.011	0.0125 ± 0.036	-0.015 ± 0.0071	-0.0125 ± 0.0078	-0.034 ± 0.034
BE3C:uPA	-0.001 ± 0.014	0 ± 0.0057	-0.0035 ± 0.0092	-0.0055 ± 0.0021	-0.005 ± 0.013	0.001 ± 0.0014
lMphg:IL-1alpha	0.026 ± 0.048	0.0125 ± 0.032	0.007 ± 0.021	0.007 ± 0.04	0.006 ± 0.061	0.001 ± 0.034
KF3CT:CCL2/MCP-1	-0.0205 ± 0.012	-0.0125 ± 0.012	-0.0015 ± 0.025	0.012 ± 0.0014	0.009 ± 0.0099	-0.007 ± 0.0085
MyoF:SRB	-0.004 ± 0.0071	-0.0045 ± 0.0021	-0.004 ± 0.0028	0.003 ± 0.02	0.0015 ± 0.016	-0.089 ± 0.13
HDF3CGF:Proliferation 72hr	-0.022 ± 0.092	0.001 ± 0.021	-0.007 ± 0.047	-0.0265 ± 0.033	0.003 ± 0.011	-0.87 ± 0.098
CASM3C:CD142/Tissue Factor	-0.0115 ± 0.018	0.0115 ± 0.015	0.0095 ± 0.03	0.009 ± 0.017	0.0035 ± 0.0092	-0.0315 ± 0.015
CASM3C:IL-6	0.0015 ± 0.0092	-0.0065 ± 0.0078	0.001 ± 0.028	-0.008 ± 0.025	-0.0165 ± 0.042	-0.0005 ± 0.0021
CASM3C:LDLR	-0.0145 ± 0.012	0.0015 ± 0.0021	-0.0035 ± 0.025	0.0045 ± 0.016	0.014 ± 0.017	-0.0585 ± 0.022
MyoF:CXCL8/IL-8	0 ± 0.0028	0.003 ± 0.02	-0.0055 ± 0.018	-0.0055 ± 0.025	-0.0095 ± 0.037	-0.005 ± 0.025
HDF3CGF:TIMP-1	-0.0045 ± 0.047	-0.0015 ± 0.00071	0.0035 ± 0.084	-0.009 ± 0.0085	-0.022	-0.014 ± 0.027
lMphg:CD40	-0.008 ± 0.0028	-0.015 ± 0.021	-0.026 ± 0.011	-0.0065 ± 0.026	-0.0095 ± 0.019	-0.0235 ± 0.022
HDF3CGF:CCL2/MCP-1	-0.008 ± 0.0071	-0.009 ± 0.017	0.0105 ± 0.028	-0.014 ± 0.028	-0.013 ± 0.057	-0.044 ± 0.082
CASM3C:Serum Amyloid A	-0.008 ± 0.017	-0.0055 ± 0.0021	-0.015 ± 0.041	-0.001 ± 0.013	0.01 ± 0.017	-0.052 ± 0.018
HDF3CGF:CXCL11/I-TAC	-0.0475 ± 0.059	-0.037 ± 0.064	-0.089 ± 0.024	-0.009 ± 0.016	-0.014 ± 0.0071	-0.22 ± 0.35
HDF3CGF:CXCL10/IP-10	0.0085 ± 0.0078	-0.013 ± 0.016	-0.0205 ± 0.06	-0.002 ± 0.0014	-0.017 ± 0.044	-0.401 ± 0.061
